Drawing on patent US7825160B2, “(Biphenyl) carboxylic acids and derivatives thereof” (Cellzome Limited, priority 2004, dated 2010), this text covers IC50 for 19 compounds.

The structures appear in SMILES notation.

The assay concerns γ-secretase activity. Nature of the assay: Screening for γ-secretase-modulating activity in SKN neuroblastoma cells carrying APP swedish mutant. Format: cell-based. The following applies: read-out: IC50 on the γ-secretase activity, Activity range. Here is the method:
Screening was carried out using SKN neuroblastoma cells carrying the APP-“swedish mutant” (point mutations at position 595 and 596, numbering based on APP695) grown in DMEM/NUT-mix F12 (HAM) provided by Gibco (cat no. 31330-38) containing 5% Serum/Fe supplemented with 1% non-essential amino acids, 100 U/ml Pen/Strep.
Cells were grown to near confluency.
The screening was performed using the assay as described in Citron et al (1997) Nature Medicine 3: 67.
IC50-Values of Selected Compounds of the Invention on the γ-Secretase Activity.
For orientation: IC50 means the concentration needed to halve the response being measured. Turning to `O=C(O)Cc1cc(OCc2ccc(Cl)cc2)cc(-c2ccc(C(F)(F)F)cc2)c1` [XLI, [5-(4-Chloro-benzyloxy)-4′-trifluoromethyl-biphenyl-3-yl]-acetic acid], the IC50 was in the range of 1 to 10 µM.

For `Cc1cc(COc2cc(CC(=O)O)cc(-c3ccc(C(F)(F)F)cc3)c2)no1` [XLIII, [5-(5-Methyl-isoxazol-3-ylmethoxy)-4′-trifluoromethyl-biphenyl-3-yl]-acetic acid], the IC50 lay in the range of 10 to 100 µM.

For `O=C(O)Cc1cc(OCc2cccc(C(F)(F)F)c2)cc(-c2ccc(C(F)(F)F)cc2)c1` [XLIX, [4′-Trifluoromethyl-5-(3-trifluoromethyl-benzyloxy)-biphenyl-3-yl]-acetic acid], the IC50 was in the range of 1 to 10 µM.

`O=C(O)Cc1cc(OCC2CCOCC2)cc(-c2ccc(C(F)(F)F)cc2)c1` [XLV, [5-(Tetrahydro-pyran-4-ylmethoxy)-4′-trifluoromethyl-biphenyl-3-yl]-acetic acid]: the concentration for half-maximal inhibition (IC50) is 10 to 100 µM.

For `O=C(O)Cc1cc(OCc2ccc(C(=O)N3CCOCC3)cc2)cc(-c2ccc(C(F)(F)F)cc2)c1` [XLVIII, {5-[4-(Morpholine-4-carbonyl)-benzyloxy]-4′-trifluoromethyl-biphenyl-3-yl}-acetic acid], the 50% inhibitory concentration (IC50) was 10 to 100 µM.

Consider `NC(=O)c1cccc(-c2cc(CC(=O)O)cc(OCc3ccccc3)c2)c1` [XV, (5-benzyloxy-3′-carbamoyl-biphenyl-3-yl)-acetic Acid], for which the half-inhibitory concentration (IC50) was 10 to 100 µM.

On to `O=C(O)Cc1cc(OCc2ccccc2)cc(-c2cccc(O)c2)c1` [XVI, (5-benzyloxy-3′-hydroxy-biphenyl-3-yl)-acetic Acid], for which the concentration for half-maximal inhibition (IC50) fell in the range of 10 to 100 µM.

In the case of `CS(=O)(=O)c1ccc(-c2cc(CC(=O)O)cc(OCc3ccccc3)c2)cc1` [XVII, (5-benzyloxy-4′-methanesulfonyl-biphenyl-3-yl)-acetic Acid], the IC50 lay in the range of 10 to 100 µM.

As to `NS(=O)(=O)c1ccc(-c2cc(CC(=O)O)cc(OCc3ccccc3)c2)cc1` [XVIII, (5-benzyloxy-4′-sulfamoyl-biphenyl-3-yl)-acetic Acid], the 50% inhibitory concentration (IC50) lay in the range of 10 to 100 µM.

In the case of `O=C(O)Cc1cc(OCc2ccccc2)cc(-c2ccc(F)cc2)c1` [XXII, (5-Benzyloxy-4′-fluoro-biphenyl-3-yl)-acetic acid], the 50% inhibitory concentration (IC50) is 10 to 100 µM.

As to `O=C(O)Cc1cc(OCc2ccccc2)cc(-c2ccc(Cl)cc2)c1` [XXIII, (5-Benzyloxy-4′-chloro-biphenyl-3-yl)-acetic acid], the IC50 was in the range of 1 to 10 µM.

On to `CC(=O)Nc1ccc(-c2cc(CC(=O)O)cc(OCc3ccccc3)c2)cc1` [XXIV, (4′-Acetylamino-5-benzyloxy-biphenyl-3-yl)-acetic acid], for which the concentration for half-maximal inhibition (IC50) is 100 to 300 µM.

As to `COc1ccc(-c2cc(CC(=O)O)cc(OCc3ccccc3)c2)cc1` [XXIX, (5-Benzyloxy-4′-methoxy-biphenyl-3-yl)-acetic acid], the IC50 fell in the range of 10 to 100 µM.

Turning to `O=C(O)Cc1cc(OCc2ccccc2)cc(-c2ccc(O)cc2)c1` [XXV, (5-Benzyloxy-4′-hydroxy-biphenyl-3-yl)-acetic acid], the half-maximal inhibitory concentration (IC50) is 100 to 300 µM.

Take `CC(C)Oc1ccc(-c2cc(CC(=O)O)cc(OCc3ccccc3)c2)cc1` [XXVI, (5-Benzyloxy-4′-isopropoxy-biphenyl-3-yl)-acetic acid]: the 50% inhibitory concentration (IC50) lay in the range of 10 to 100 µM.

As to `O=C(O)Cc1cc(OCc2ccccc2)cc(-c2cc(F)cc(F)c2)c1` [XXVII, (5-Benzyloxy-3′,5′-difluoro-biphenyl-3-yl)-acetic acid], the IC50 lay in the range of 10 to 100 µM.

Regarding `CC(C)Oc1cccc(-c2cc(CC(=O)O)cc(OCc3ccccc3)c2)c1` [XXVIII, (5-Benzyloxy-3′-isopropoxy-biphenyl-3-yl)-acetic acid], the IC50 fell in the range of 10 to 100 µM.

Regarding `COc1ccccc1-c1cc(CC(=O)O)cc(OCc2ccccc2)c1` [XXX, (5-Benzyloxy-2′-methoxy-biphenyl-3-yl)-acetic acid], the IC50 lay within 10 to 100 µM.

`Cc1ccccc1-c1cc(CC(=O)O)cc(OCc2ccccc2)c1` [XXXI, (5-Benzyloxy-2′-methyl-biphenyl-3-yl)-acetic acid]: the IC50 is 10 to 100 µM.
